What was measured:
[1] = tested on: human embryonic stem cell line H9; experiment: PCR of endoderm, extraembryonic, mesoderm and ectoderm markers after activin A treatment on MEFs; assay type: cell-based
Source text: (§1) The level of expression of definitive endoderm markers was examined by PCR (FIG. 1), FACS (results summarized in Table II), and immunohistochemistry (FIG. 2).
Cells were harvested at the time points indicated in FIG. 3 and assayed by PCR for the expression of genes shown (FIGS. 3, 4 and 5).
RNA extraction, purification, and CDNA synthesis: RNA samples were purified by binding to a silica-gel membrane (Rneasy Mini Kit, Qiagen, CA) in the presence of an ethanol-containing, high-salt buffer followed by washing to remove contaminants. The RNA was further purified using a TURBO DNA-free kit (Ambion, INC), and high-quality RNA was then eluted in water. Yield and purity were assessed by A260 and A280 readings on a spectrophotometer. cDNA copies were made from purified RNA using an ABI (ABI, CA) high capacity cDNA archive kit.
Final data were expressed relative to a calibrator sample.

[2] = tested on: human embryonic stem cell line H1; experiment: FACS of protein markers after activin A treatment (Table IIC); assay type: cell-based; details: 5-day AA treatment
Source text: as §1
CXCR4 positive cells were also highly positive for C-kit, EPCAM, CD99, and negative for CD9. The expression pattern for these markers was consistent among all three hES cell lines examined (Table IIB for H7 and Table IIC for H1). […] In parallel, almost 100% of the differentiated cells were […] (FIG. 2).
Adhered cells were removed from culture plates by five-minute incubation with TrypLE™ Express solution (Invitrogen, CA). Released cells were resuspended in human embryonic stem cell culture medium and recovered by centrifugation, followed by washing and resuspending the cells in a staining buffer consisting of 2% BSA, 0.05% sodium azide in PBS (Sigma, MO). As appropriate, the cells were Fc-receptor blocked for 15 minutes using a 0.1% γ-globulin (Sigma) solution. […] Controls included appropriate isotype matched antibodies, unstained cells, and cells stained only with secondary conjugated antibody. All incubations with antibodies were performed for 30 mins at 4° C. after which the cells were washed with the staining buffer. Samples that were stained with unconjugated primary antibodies were incubated for an additional 30 mins at 4° C. with secondary conjugated PE or —APC labeled antibodies. See Table I for a list of secondary antibodies used. Washed cells were pelleted and resuspended in the staining buffer, and the cell surface molecules were identified using a FACS Array (BD Biosciences) instrument, collecting at least 10,000 events.

## Activin A: activin A (a member of the TGFβ superfamily), R&D Systems; 'w/o wnt' in Table VII = 100 ng/ml Activin A without Wnt3a
[1]; Activin A 100 ng/ml up to seven days
  Oct4 expression: no significant decrease
[1]; Activin A 100 ng/ml up to seven days, 0% to 2% serum
  Pdx1 gene expression: no Pdx1 gene expression was observed
[1]; H9, 100 ng/ml activin A
  expression of Brachyury: decreased
  expression of neuronal marker Zic1: no effect
[1]; H9, 100 ng/ml activin A, 1-7 days
  expression of extraembryonic endoderm markers Sox7 and AFP: time-dependent decrease
[1]; H9, 100 ng/ml activin A, three and five days
  anterior endoderm markers Cerberus, Otx-1 and Hex genes: significant up regulation
[1]; H9, 100 ng/ml activin A, two, five and eight days
  expression of CXCR4, GATA4, HNF-3beta, Mixl1 and Sox-17 mRNA: time-dependent increase
[2]
  CXCR4+: 92.78%
  CXCR4+/C-kit+: 92.90%
  CXCR4+/CD9+: 7.03%
  CXCR4+/CD99+: 88.78%
  CXCR4+/EPCAM: 87.99%

Reference: patent publication US9096832B2, “Differentiation of human embryonic stem cells” (LifeScan, Inc., priority 2007, dated 2015)
